Tests used:
MST2 = target: T1, MST2 (Homo sapiens, UniProt Q13188); assay: biochemical kinase assay; KD also determined (Fig. 1c, d); KINOMEscan binding
T1 construct: gene STK3
T1 sequence (Q13188 1-491): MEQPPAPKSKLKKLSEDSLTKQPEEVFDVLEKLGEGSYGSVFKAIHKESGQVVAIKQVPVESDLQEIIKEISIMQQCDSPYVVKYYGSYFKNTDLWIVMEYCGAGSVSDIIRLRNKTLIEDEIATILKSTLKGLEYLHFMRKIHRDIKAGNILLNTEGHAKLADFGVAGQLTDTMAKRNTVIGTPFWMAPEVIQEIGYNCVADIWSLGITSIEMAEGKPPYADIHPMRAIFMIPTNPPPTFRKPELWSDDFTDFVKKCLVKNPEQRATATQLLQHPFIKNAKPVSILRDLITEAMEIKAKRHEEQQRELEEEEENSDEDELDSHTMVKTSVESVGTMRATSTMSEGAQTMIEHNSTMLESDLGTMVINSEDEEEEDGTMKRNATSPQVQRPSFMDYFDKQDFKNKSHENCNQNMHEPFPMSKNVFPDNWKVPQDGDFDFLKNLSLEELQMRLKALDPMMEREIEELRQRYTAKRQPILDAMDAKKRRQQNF

[1] = target: T2, MST1 (mammalian sterile 20-like kinase 1) (Homo sapiens, UniProt Q13043)
T2 construct: gene STK4
T2 sequence (Q13043 whole entry): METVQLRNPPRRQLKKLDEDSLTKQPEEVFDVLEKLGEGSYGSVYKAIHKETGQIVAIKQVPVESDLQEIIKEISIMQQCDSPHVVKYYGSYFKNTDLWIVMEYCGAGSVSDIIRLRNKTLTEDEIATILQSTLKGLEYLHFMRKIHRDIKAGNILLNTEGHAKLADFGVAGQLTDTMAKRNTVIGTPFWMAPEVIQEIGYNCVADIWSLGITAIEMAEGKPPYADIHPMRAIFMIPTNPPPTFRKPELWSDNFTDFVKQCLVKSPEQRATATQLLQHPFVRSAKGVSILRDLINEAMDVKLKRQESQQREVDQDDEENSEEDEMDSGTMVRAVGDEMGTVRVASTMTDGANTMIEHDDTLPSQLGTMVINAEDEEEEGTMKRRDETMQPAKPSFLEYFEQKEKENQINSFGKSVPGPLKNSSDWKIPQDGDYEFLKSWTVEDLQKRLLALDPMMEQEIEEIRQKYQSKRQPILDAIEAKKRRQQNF

IC50 (MST2): 109 nM | IC50 [1]: 42 nM
Compound: CN1C(=O)C(c2c(F)cccc2F)N(C)c2nc(Nc3ccc(S(N)(=O)=O)cc3)ncc21 (centres unmarked) [IHMT-MST1-39]

Reference: article PMC10073293, “Discovery of IHMT-MST1-39 as a novel MST1 kinase inhibitor and AMPK activator for the treatment of diabetes mellitus” (Signal Transduction and Targeted Therapy, 2023)
